Tests used:
human recombinant PFKFB4 = human recombinant PFKFB4 (Homo sapiens, UniProt Q16877); test: In vitro kinase assay with purified recombinant human PFKFB4; format: biochemical; conditions: Lineweaver-Burk analyses
Protocol: (§1) Figure 1 Compound 5MPN inhibits recombinant PFKFB4 enzyme activity A. Representation of the 5MPN molecule docked in the crystal structure of rat testes PFKFB4. 5MPN is shown in thicker stick representation than the surrounding protein residues. B. Molecular structure of 5MPN (MW, 305.3 Da). In vitro kinase assays using purified recombinant human PFKFB4 were performed as described in the presence or absence of 0.1, 1 or 10 μM 5MPN. Michaelis-Menten C. and Lineweaver-Burk double reciprocal D. plots examining PFKFB4 enzyme activity as a function of F6P concentration (0 - 2000 μmol/L) are shown. E. In vitro kinase assays using purified recombinant human PFKFB3 were performed as described in the presence or absence of 0.1, 1 or 10 μM 5MPN and the Michaelis-Menten plot examining PFKFB3 enzyme activity as a function of F6P concentration (0 - 400 μmol/L) is shown. Data shown are representative of three independent experiments. […] The activity of 5MPN against 97 kinases was examined using a commercially available active-site dependent competition binding assay core service (KINOMEscanEDGE) that quantifies the capacity of test agents to compete with an immobilized, active-site directed ligand using a DNA-tagged kinase and immobilized ligand and compound.

human recombinant PFKFB3 = human recombinant PFKFB3 (Homo sapiens, UniProt Q16875); test: In vitro kinase assay with purified recombinant human PFKFB3; format: biochemical; conditions: 10 μM
human recombinant PFKFB3, sequence (Q16875 whole entry): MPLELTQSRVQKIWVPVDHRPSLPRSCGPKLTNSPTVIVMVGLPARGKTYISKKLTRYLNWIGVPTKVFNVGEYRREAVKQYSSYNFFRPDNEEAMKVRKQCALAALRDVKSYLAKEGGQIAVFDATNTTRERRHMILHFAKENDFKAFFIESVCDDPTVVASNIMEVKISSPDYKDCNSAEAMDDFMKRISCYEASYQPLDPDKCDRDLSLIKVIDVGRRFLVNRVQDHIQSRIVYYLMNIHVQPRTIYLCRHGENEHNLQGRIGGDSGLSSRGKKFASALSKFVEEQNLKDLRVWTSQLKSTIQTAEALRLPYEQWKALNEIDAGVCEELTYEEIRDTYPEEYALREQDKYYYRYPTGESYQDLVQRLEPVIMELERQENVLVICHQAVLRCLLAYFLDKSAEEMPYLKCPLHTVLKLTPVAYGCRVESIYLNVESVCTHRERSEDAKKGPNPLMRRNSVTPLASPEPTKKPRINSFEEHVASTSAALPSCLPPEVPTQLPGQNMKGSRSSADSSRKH
Protocol: as §1

[1] = system: intracellular F2,6BP in H460 cells; test: F2,6BP measurement in H460 cells; format: cell-based, human; conditions: for [F2,6BP]: 24 hours (DMSO 6.1 ±0.2)
Protocol: Cells or tissues were prepared as previously described and F2,6BP content measured using a coupled enzyme reaction following the method of Van Schaftingen et al and normalized to total cellular protein measured by the bicinchoninic acid assay (Thermo Scientific). All data are expressed as the mean ± SD of three experiments. Statistical significance was assessed by the two-sample t test (independent variable).

A549 cells = test: Viable cell count (trypan blue exclusion); format: cell-based, human; conditions: A549, 48 hours
Protocol: (§2) Viability was determined using trypan blue exclusion as previously described. Cells were incubated in 20% trypan blue (Sigma) for 5 minutes. Cells excluding trypan blue were counted using a standard hemocytometer (Hausser Scientific) to determine total numbers of viable cells. Data are expressed as mean ± SD of three experiments.

H1299 cells = test: Viable cell count (trypan blue exclusion); format: cell-based, human; conditions: H1299, 48 hours
Protocol: as §2

H441 cells = test: Viable cell count (trypan blue exclusion); format: cell-based, human; conditions: H441, 48 hours
Protocol: as §2

H460 cells [2] = test: Viable cell count (trypan blue exclusion); format: cell-based, human
Protocol: as §2

H522 cells = test: Viable cell count (trypan blue exclusion); format: cell-based, human; conditions: H522, 48 hours
Protocol: as §2

HCT116 cells = test: Viable cell count (trypan blue exclusion); format: cell-based, human; conditions: HCT116, 48 hours
Protocol: as §2

LNCaP cells = test: Viable cell count (trypan blue exclusion); format: cell-based, human; conditions: 48 hours
Protocol: as §2

MDA-MB-231 cells = test: Viable cell count (trypan blue exclusion); format: cell-based, human; conditions: MDA-MB-231, 48 hours
Protocol: as §2

hT/LT/Ras cells = test: Viable cell count (trypan blue exclusion); format: cell-based, human; conditions: live cells counted at 48 hours
Protocol: as §2

H460 cells [3] = test: Apoptosis by flow cytometry (annexin V / propidium iodide); format: cell-based, human; conditions: 10μM 5MPN
Protocol: (§3) To measure apoptosis, cells were stained with annexin V and propidium iodide and examined as previously described. For cell cycle experiments, cells were detached, washed with cold PBS and fixed in 70% ethanol at 4°C for 30 minutes. The cells then were pelleted by centrifugation, resuspended in PBS containing PI and RNase A, incubated at 37°C in the dark for 30 minutes and analyzed by flow cytometry (BD FACSCalibur). Data were analyzed using FlowJo software (TREE STAR Inc.). Results were calculated as the mean ± SD of three experiments and data shown are representative of three independent experiments.

H460 cells [4] = test: Cell cycle analysis by flow cytometry (PI); format: cell-based, human; conditions: 10μM 5MPN
Protocol: as §3

[5] = Pharmacokinetic profile after IV and oral administration; format: in vivo; conditions: mouse, female C57BL/6 mice, plasma
Protocol: The pharmacokinetic profile was determined in female C57BL/6 mice (Charles River Laboratories) following IV and oral administration of 5MPN. Using only female mice lowered the animal numbers required for meaningful results without issues of potential gender differences in exposure. Eight time points (n=3 per time point) were used to determine indicated PK parameters calculated using WinNonLin v5.0. Plasma samples were extracted using acetonitrile and analyzed by LC/MS-MS using a PhenomexSynergi Polar-RP 4micron 50×2.0 mm column eluted with a biphasic mobile phase (0.5% formic acid in acetonitrile and water).

C57BL/6 mice = test: Two-week oral toxicity study; format: in vivo; conditions: 120 mg/kg PO, two weeks
Protocol: Given the potential usefulness of oral administration in terms of cost and convenience, we elected to pursue this route in subsequent toxicity and efficacy pre-clinical studies. Initially, we dosed C57BL/6 mice with 120 mg/kg PO (dose chosen based on a dose escalation trial) for two weeks and analyzed the effect on complete blood counts, electrolytes, hepatic and renal function, body mass and the gross and histological appearance of the brain, heart, lungs, liver, kidneys and spleen. […] We confirmed that 5MPN caused a G1 arrest in LLC cells in vitro similar to H460 cells (Figure 4G) and then examined the number of Ki67-positive cells since Ki67 expression correlates with later S and G2 phases of the cell cycle.

human recombinant PFKFB4, sequence (Q16877 whole entry): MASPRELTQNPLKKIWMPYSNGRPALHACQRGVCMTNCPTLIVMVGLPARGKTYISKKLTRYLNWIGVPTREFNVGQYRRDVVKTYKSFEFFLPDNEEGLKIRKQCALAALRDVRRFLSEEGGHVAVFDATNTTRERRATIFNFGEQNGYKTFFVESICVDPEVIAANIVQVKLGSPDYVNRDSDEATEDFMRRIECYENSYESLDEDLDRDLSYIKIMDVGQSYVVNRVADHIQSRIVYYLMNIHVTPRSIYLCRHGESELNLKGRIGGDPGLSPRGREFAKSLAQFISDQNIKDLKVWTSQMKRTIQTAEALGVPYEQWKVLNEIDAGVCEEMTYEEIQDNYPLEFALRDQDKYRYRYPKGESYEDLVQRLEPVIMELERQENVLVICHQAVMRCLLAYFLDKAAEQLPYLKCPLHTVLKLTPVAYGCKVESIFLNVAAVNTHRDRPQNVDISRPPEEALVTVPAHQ

For COc1cccc2c(NCCCCCO[N+](=O)[O-])ccnc12 [Compound 5MPN, 5-(n-(8-methoxy-4-quinolyl)amino)pentyl nitrate], the mode of inhibition (human recombinant PFKFB4) was “competitive inhibitor of the F6P binding site”, the Ki (human recombinant PFKFB4; F6P as substrate, read-out: Ki for 5MPN inhibition) was 8.6 ± 1.9 µM and the “inhibition of PFKFB3 kinase activity” value (human recombinant PFKFB3) was “no inhibition of kinase activity”. For the same molecule, the “[F2,6BP]” value ([1]; 5μM 5MPN) was 2.3 ±0.05 pmol/mg protein, the “[F2,6BP]” value ([1]; 10μM 5MPN) was 1.52 ±0.2 pmol/mg protein and the “[F2,6BP]” value ([1]; 20 μM 5MPN) was 0.75±0.09 pmol/mg protein. The “[F2,6BP]” value ([1]; 30 μM 5MPN) was 0.43 ±0.1 pmol/mg protein, the “effect of PFKFB4 over-expression on the reduction in F2,6BP caused by 5MPN” value ([1]; Vec vs FB4, 10 μM 5MPN, 24 hours) was “reversed” and the effect on proliferation (A549 cells) was “dose-dependent reduction in growth”. For the same molecule, the effect on proliferation (H1299 cells) was “dose-dependent reduction in growth”, the effect on proliferation (H441 cells) was “dose-dependent reduction in growth” and the effect on proliferation (H460 cells [2]; H460, 48 hours) was “dose-dependent reduction in growth”. The “effect of PFKFB4 over-expression on anti-proliferative effect” value (H460 cells [2]; H460 cells transfected with PFKFB4 vs empty vector, 10μM 5MPN, 24 hours) was “protected”, the effect on proliferation (H522 cells) was “dose-dependent reduction in growth” and the effect on proliferation (HCT116 cells) was “dose-dependent reduction in growth”. For the same molecule, the effect on proliferation (LNCaP cells) was “dose-dependent reduction in growth”, the effect on proliferation (MDA-MB-231 cells) was “dose-dependent reduction in growth” and the “effect on cell growth” value (hT/LT/Ras cells) was “suppressed similar to other transformed cells”. For the same molecule, the “increase in apoptotic cells” value (H460 cells [3]) was “only a minimal increase”, the cell cycle arrest (H460 cells [4]) was “marked G1 arrest” and the AUC(0-inf) ([5]; iv, 2 mg/kg, I.V.) was 114 ng·h/mL. For the same molecule, the AUC(0-t) ([5]; iv, 2 mg/kg, I.V.) was 111 ng·h/mL, the C0 ([5]; iv, 2 mg/kg, I.V.) was 249 ng/mL and the half-life ([5]; iv, 2 mg/kg, I.V.) was 0.387 h. The Vd ([5]; iv, 2 mg/kg, I.V., read-out: Vss) was 8.48 L/kg, the MRT ([5]; iv, I.V.) was 0.485 h and the clearance ([5]; iv, I.V.) was 291 mL/min/kg. The MRT ([5]; po, 10 mg/kg, P.O) was 2.31 h, the AUC(0-inf) ([5]; po, P.O) was 234 ng·h/mL and the AUC(0-t) ([5]; po, P.O) was 225 ng·h/mL. It also gave a Cmax ([5]; po, P.O) of 98.7 ng/mL, a bioavailability ([5]; po, P.O) of 40.9% and a half-life ([5]; po, P.O) of 1.67 h. The “signs of toxicity (blood counts, electrolytes, hepatic and renal function, body mass, organ histology, behavior)” value (C57BL/6 mice) was “no signs of toxicity”.

— PMC4627231, “Targeting the sugar metabolism of tumors with a first-in-class 6-phosphofructo-2-kinase (PFKFB4) inhibitor” (Oncotarget, 2015)
